Patent US11273172B2, “Synergistic combination of oligonucleotides and chemotherapeutic for treating cancer” (THE BOARD OF TRUSTEES OF THE UNIVERSITY OF ILLINOIS, priority 2017, dated 2022)

Assays:
Assay in all cases: MTT cell death assay, chemotherapeutic with and without MADD siRNA knockdown
Assay type in all cases: cell-based
[1] = test system: 8505C thyroid cancer cells; details: 8505C; Cisplatin 2.5 μM; siRNA 10 nM; 48 hours post Cisplatin treatment
Method: (§1) Cells are cultured and maintained at 37° C. in a humidified atmosphere containing 5% CO2 as described above. […] After 12-18 hours (Day 1), cells are transfected with Scramble or MADD siRNA at 10 nM concentration. The sequences of siRNAs (double stranded) used are:
(§2) On Day 4, when cells are properly adhered and retained their shape in 96-well plates, drugs are added. All drugs are diluted in complete media on the same day prior to the addition to the cells. In untreated cells, media is replaced with complete media. Two hundred μl volume of media (with or without drugs) is used for the drug treatment assay. Plates are incubated 24 h, 48 h and 72 hours at 37° C. in humidified CO2 incubator.
(§3) An MTT assay is performed to determine relative survival after drug treatment as described above. MTT (3-[4,5-Dimethylthiazol-2-yl]-2,5-diphenyltetrazolium bromide; Thiazolyl blue) is purchased from Sigma Aldrich (Cat number: M5655). […] Ten μl of MTT solution is added per well of 96-well plate. Plates are incubated for 2 hours at 37° C. in the humidified CO2 incubator. After 2 hours, media is aspirated using vacuum inside the biosafety hood. Purple colored crystals formed in viable cells are dissolved by adding 100 μl of Dimethyl sulfoxide (Thermo Fisher Scientific; Cat number D128-500) Plates are kept on shaker for 10 minutes for compete dissolution of crystals and absorbance is recorded at 595 nm using Bio-Rad iMark microplate reader. Data is analyzed in MICROSOFT EXCEL® software. Relative survival is calculated with respect to absorbance of control (untreated cells) to determine the effect of transfection as well as combination treatment.
(§4) Each data set takes into account any spontaneous cell death which is observed upon transfection with Scramble siRNA; the amount of spontaneous cell death from Scramble siRNA transfection (baseline) is subtracted from the amount of cell death observed in each siRNA transfection reaction to yield a Net Percent (Net %) cell death after accounting for Scrambled siRNA-induced cell death.
as §2, with “24 hours,” for “24 h,”, “48 hours” for “48 h”

[2] = test system: HTH7 thyroid cancer cells; details: siRNA 10 nM
Method: as §1
as §2, with “24 hours,” for “24 h,”, “48 hours” for “48 h”
as §3, §4

[3] = test system: PLC/PRF/5 hepatic cancer cells; details: siRNA 10 nM
Method: (§5) Cells are cultured and maintained at 37° C. in a humidified atmosphere containing 5% CO2 as described above. […] After 12-18 hours (Day 1), cells are transfected with Scramble or MADD siRNA at 10 nM concentration. The sequences of siRNAs (double-stranded) used are:
as §2, with “24 hours,” for “24 h,”, “48 hours” for “48 h”
as §3, §4, §1
as §3, with “D128-500).” for “D128-500)”
as §2

[4] = test system: AGS gastric adenocarcinoma cells; details: siRNA 10 nM
Method: as §5
as §2, with “24 hours,” for “24 h,”, “48 hours” for “48 h”
as §3, §4, §1
as §3, with “D128-500).” for “D128-500)”
as §2

H522 lung cancer cells = details: Gemcitabine 8.2 nM, siRNA 10 nM, 48 hours post Gemcitabine treatment
Method: (§6) Cells are cultured and maintained at 37° C. in a humidified atmosphere containing 5% CO2 as described above. On Day 0, Cells are seeded in […] tissue culture dishes (Corning; Cat Number: 353003) to attain 60-70% confluence. In parallel, cells are also seeded in one 96-well plate (Corning; Cat number: 353072) for analysis of survival before reseeding. After 12-18 hours (Day 1), cells are transfected with Scramble or MADD siRNA at 10 nM concentration. The sequences of siRNAs (double-stranded) used are:
as §2, with “24 hours,” for “24 h,”, “48 hours” for “48 h”
(§7) An MTT assay is performed to determine relative survival after drug treatment as described above. MTT (3-[4,5-Dimethylthiazol-2-yl]-2,5-diphenyltetrazolium bromide; Thiazolyl blue) is purchased from Sigma Aldrich (Cat number: M5655). MTT is dissolved in sterile DPBS at the concentration of 5 mg/ml and filtered through […] syringe filter (Corning; Cat number: 431220). Ten μl of MTT solution is added per well of 96-well plate. Plates are incubated for 2 hours at 37° C. in the humidified CO2 incubator. After 2 hours, media is aspirated using vacuum inside the biosafety hood. Purple colored crystals formed in viable cells are dissolved by adding 100 μl of Dimethyl sulfoxide (Thermo Fisher Scientific; Cat number D128-500) Plates are kept on shaker for 10 minutes for compete dissolution of crystals and absorbance is recorded at 595 nm using Bio-Rad iMark microplate reader. Data is analyzed in MICROSOFT EXCEL® software. Relative survival is calculated with respect to absorbance of control (untreated cells) to determine the effect of transfection as well as combination treatment.
as §4
as §6, with “(double stranded)” for “(double-stranded)”
as §7, with “D128-500).” for “D128-500)”, “Relative survival is calculated with respect to absorbance of control (untreated cells) to determine the effect of transfection as well as combination treatment.” left out

[5] = test system: OVCAR3 ovarian cancer cells; details: siRNA 10 nM
Method: as §6
as §2, with “24 hours,” for “24 h,”, “48 hours” for “48 h”
as §7, §4
as §6, with “(double stranded)” for “(double-stranded)”
as §7, with “D128-500).” for “D128-500)”, “Relative survival is calculated with respect to absorbance of control (untreated cells) to determine the effect of transfection as well as combination treatment.” left out

H2227 lung cancer cells = details: siRNA 10 nM
Method: as §6
as §2, with “24 hours,” for “24 h,”, “48 hours” for “48 h”
as §7, §4
as §6, with “(double stranded)” for “(double-stranded)”
as §2, with “added. Doxorubicin was added at a working concentration of 5.0 nM, 9.375 nM, 0.075 μM, 0.25 μM, 0.5 μM, and 0.8 μM.” for “added.”, “24 hours,” for “24 h,”, “48 hours” for “48 h”
(§8) An MTT assay is performed to determine relative survival after drug treatment as described above. MTT (3-[4,5-Dimethylthiazol-2-yl]-2,5-diphenyltetrazolium bromide; Thiazolyl blue) is purchased from Sigma Aldrich (Cat number: M5655). MTT is dissolved in sterile DPBS at the concentration of 5 mg/ml and filtered through […] syringe filter (Corning; Cat number: 431220). Ten μl of MTT solution is added per well of 96-well plate. Plates are incubated for 2 hours at 37° C. in the humidified CO2 incubator. […]

[6] = test system: K562 chronic myelogenous leukemia cells; details: siRNA 10 nM
Method: as §6
as §2, with “24 hours,” for “24 h,”, “48 hours” for “48 h”
as §7, §4
as §6, with “(double stranded)” for “(double-stranded)”
as §2, with “added. Doxorubicin was added at a working concentration of 5.0 nM, 9.375 nM, 0.075 μM, 0.25 μM, 0.5 μM, and 0.8 μM.” for “added.”, “24 hours,” for “24 h,”, “48 hours” for “48 h”
as §8

[7] = test system: SU.86.86 pancreatic cancer cells; details: Doxorubicin 5 nM, siRNA 10 nM, 24 hours post Doxorubicin treatment
Method: as §6
as §2, with “24 hours,” for “24 h,”, “48 hours” for “48 h”
as §7, §4
as §6, with “(double stranded)” for “(double-stranded)”
as §2, with “added. Doxorubicin was added at a working concentration of 5.0 nM, 9.375 nM, 0.075 μM, 0.25 μM, 0.5 μM, and 0.8 μM.” for “added.”, “24 hours,” for “24 h,”, “48 hours” for “48 h”
as §8

[8] = test system: N87 gastric carcinoma cells; details: Doxorubicin 0.8 μM, siRNA 10 nM, 72 hours post Doxorubicin treatment
Method: as §6, with “(double stranded)” for “(double-stranded)”
as §2, with “added. Doxorubicin was added at a working concentration of 5.0 nM, 9.375 nM, 0.075 μM, 0.25 μM, 0.5 μM, and 0.8 μM.” for “added.”, “24 hours,” for “24 h,”, “48 hours” for “48 h”
as §7, with “D128-500).” for “D128-500)”
as §4

[9] = test system: JIMT1 breast cancer cells; details: Doxorubicin 0.075 μM, siRNA 10 nM, 24 hours post Doxorubicin treatment
Method: as §6, with “(double stranded)” for “(double-stranded)”
as §2, with “added. Doxorubicin was added at a working concentration of 5.0 nM, 9.375 nM, 0.075 μM, 0.25 μM, 0.5 μM, and 0.8 μM.” for “added.”, “24 hours,” for “24 h,”, “48 hours” for “48 h”
as §7, with “D128-500).” for “D128-500)”
as §4

[10] = Cisplatin 1.25 μM, 72 hours post Cisplatin treatment
[11] = Cisplatin 5 μM, 24 hours post Cisplatin treatment
[12] = Cisplatin 1.875 μM, 24 hours post Cisplatin treatment
[13] = 5-flurouracil 25 μM, 72 hours post 5-flurouracil treatment
[14] = Gemcitabine 0.1 μM, 48 hours post Gemcitabine treatment
[15] = Gemcitabine 1 μM, 48 hours post Gemcitabine treatment
[16] = Gemcitabine 0.03125 μM, 24 hours post Gemcitabine treatment
[17] = Gemcitabine 25 nM, 48 hours post Gemcitabine treatment
[18] = Doxorubicin 9.375 nM, 48 hours post Doxorubicin treatment
[19] = Doxorubicin 0.25 μM, 72 hours post Doxorubicin treatment
[20] = Doxorubicin 0.5 μM, 48 hours post Doxorubicin treatment

N.N.[Cl][Pt][Cl] [Cisplatin]
Net % cell death after accounting for Scrambled siRNA [1]: 19%
Observed % Cell death [1]: 19%
Net % cell death after accounting for Scrambled siRNA [2, 10]: 0%
Observed % Cell death [2, 10]: 0%
Net % cell death after accounting for Scrambled siRNA [2, 11]: 13%
Observed % Cell death [2, 11]: 13%
Net % cell death after accounting for Scrambled siRNA [3, 12]: 41%
Observed % Cell death [3, 12]: 41%

O=c1[nH]cc(F)c(=O)[nH]1 [5-flurouracil]
Net % cell death after accounting for Scrambled siRNA [4, 13]: 22%
Observed % Cell death [4, 13]: 22%

Nc1ccn([C@@H]2O[C@H](CO)[C@@H](O)C2(F)F)c(=O)n1 [Gemcitabine]
Net % cell death after accounting for Scrambled siRNA (H522 lung cancer cells): 4%
Observed % Cell death (H522 lung cancer cells): 4%
Observed % Cell death ([5]; Gemcitabine 0.0125 μM, 72 hours post Gemcitabine treatment): 19%
Net % cell death after accounting for Scrambled siRNA [5, 14]: 28%
Observed % Cell death [5, 14]: 28%
Net % cell death after accounting for Scrambled siRNA [4, 15]: 38%
Observed % Cell death [4, 15]: 38%
Net % cell death after accounting for Scrambled siRNA [3, 16]: 1%
Observed % Cell death [3, 16]: 1%
Net % cell death after accounting for Scrambled siRNA (H2227 lung cancer cells; [17]): 15%
Observed % Cell death (H2227 lung cancer cells; [17]): 15%

COc1cccc2c1C(=O)c1c(O)c3c(c(O)c1C2=O)C[C@@](O)(C(=O)CO)C[C@@H]3O[C@H]1C[C@H](N)[C@H](O)[C@H](C)O1 [Doxorubicin]
Net % cell death after accounting for Scrambled siRNA (H2227 lung cancer cells; [18]): 3%
Observed % Cell death (H2227 lung cancer cells; [18]): 3%
Net % cell death after accounting for Scrambled siRNA [6, 19]: 11%
Observed % Cell death [6, 19]: 11%
Net % cell death after accounting for Scrambled siRNA [6, 20]: 0%
Observed % Cell death [6, 20]: 0%
Net % cell death after accounting for Scrambled siRNA [7]: 36%
Observed % Cell death [7]: 36%
Net % cell death after accounting for Scrambled siRNA [8]: 38%
Observed % Cell death [8]: 38%
Net % cell death after accounting for Scrambled siRNA [9]: 17%
Observed % Cell death [9]: 17%
